ChEMBL document CHEMBL1201862, “PubChem BioAssay data set” (2004)
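Dose response: 5 concentrations. Exposure: 48 h. Format: 96-well plates. Endpoint: linear interpolation; highest concentration if not reached. The concentration for 50% growth inhibition is given as GI50.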 The source made the active and inactive calls. Rule as the data show it: active = GI50 up to about 1.1 µM and inactive = higher.

How the values were obtained:
Test in all cases: DTP human tumour cell line panel, 48 h
[1] = system: EKVX
[2] = system: ACHN
[3] = system: SN12C
[4] = system: NCI-H460
[5] = system: U-251
[6] = system: HT-29
[7] = system: UO-31
[8] = system: OVCAR-8
[9] = system: HOP-92
[10] = system: M14
[11] = system: SK-MEL-5
[12] = system: SF-539
[13] = system: K562
[14] = system: COLO 205
[15] = system: RXF 393
[16] = system: Malme-3M
[17] = system: MDA-MB-231
[18] = system: MCF7
[19] = system: NCI/ADR-RES

Row | SMILES | GI50 [1] | GI50 [2] | GI50 [3] | GI50 [4] | GI50 [5] | GI50 [6] | GI50 [7] | GI50 [8] | GI50 [9] | GI50 [10] | GI50 [11] | GI50 [12] | GI50 [13] | GI50 [14] | GI50 [15] | GI50 [16] | GI50 [17] | GI50 [18] | GI50 [19]
1 | COC(=O)[C@@]12OC[C@]34C([C@@H](O)C1O)[C@@]1(C)CC(=O)C(OC(=O)/C=C(/c5ccccc5)C(F)(F)F)=C(C)C1C[C@H]3OC(=O)[C@H](O)[C@H]42 (stereo not given in full) | 38.6 µM (inactive) | 13.9 µM (inactive) | 7.93 µM (inactive) | 2.43 µM (inactive) | 6.68 µM (inactive) | 6.76 µM (inactive) | 35.7 µM (inactive) | 12.1 µM (inactive) | 5.86 µM (inactive) | 8.77 µM (inactive) | 4.83 µM (inactive) | 3.79 µM (inactive) | 9.4 µM (inactive) | 11.2 µM (inactive) | 16.9 µM (inactive) | 7.91 µM (inactive) | – | – | –
2 | O=C1C2C3C=C4c5ccccc5N(c5ccccc5)C4(C2C(=O)N1c1ccc(Br)cc1)[C@H]1C(=O)N(c2ccc(Br)cc2)C(=O)[C@@H]31 (stereo not given in full) | > 100 µM (inactive) | – | > 100 µM (inactive) | > 100 µM (inactive) | > 100 µM (inactive) | > 100 µM (inactive) | > 100 µM (inactive) | > 100 µM (inactive) | 84.3 µM (inactive) | 43.4 µM (inactive) | > 100 µM (inactive) | > 100 µM (inactive) | > 100 µM (inactive) | 31.6 µM (inactive) | > 100 µM (inactive) | > 100 µM (inactive) | – | – | –
3 | Cn1c(=O)c(Br)c(C=O)n(CCO[N+](=O)[O-])c1=O | 2.78 µM (inactive) | 3.71 µM (inactive) | 4.34 µM (inactive) | 15.9 µM (inactive) | 3.02 µM (inactive) | – | > 10 µM (inactive) | 2.52 µM (inactive) | 2.72 µM (inactive) | 3.99 µM (inactive) | 11.2 µM (inactive) | 7.76 µM (inactive) | 2.66 µM (inactive) | 5.92 µM (inactive) | – | – | 2.53 µM (inactive) | 1.97 µM (inactive) | 1.74 µM (inactive)
4 | COc1ccccc1CC(=O)C(O)(C(F)(F)F)C(F)(F)F | > 100 µM (inactive) | > 100 µM (inactive) | > 100 µM (inactive) | > 100 µM (inactive) | > 100 µM (inactive) | > 100 µM (inactive) | > 100 µM (inactive) | > 100 µM (inactive) | > 100 µM (inactive) | > 100 µM (inactive) | > 100 µM (inactive) | > 100 µM (inactive) | > 100 µM (inactive) | > 100 µM (inactive) | > 100 µM (inactive) | > 100 µM (inactive) | > 100 µM (inactive) | > 100 µM (inactive) | > 100 µM (inactive)
5 | CCOc1ccc(NC(=O)CCc2nnc(SC)o2)cc1 | > 100 µM (inactive) | > 100 µM (inactive) | > 100 µM (inactive) | > 100 µM (inactive) | > 100 µM (inactive) | > 100 µM (inactive) | > 100 µM (inactive) | > 100 µM (inactive) | 82 µM (inactive) | > 100 µM (inactive) | > 100 µM (inactive) | > 100 µM (inactive) | > 100 µM (inactive) | > 100 µM (inactive) | > 100 µM (inactive) | > 100 µM (inactive) | – | – | –
6 | CC(C)N(/C(F)=N\C(=O)Nc1ccccc1C(F)(F)F)C(C)C | 31.8 µM (inactive) | 39.4 µM (inactive) | 37.2 µM (inactive) | 68.2 µM (inactive) | 43.4 µM (inactive) | 40.2 µM (inactive) | 45 µM (inactive) | 58.1 µM (inactive) | 22.5 µM (inactive) | 47.6 µM (inactive) | 38.4 µM (inactive) | 92 µM (inactive) | 35.8 µM (inactive) | 44.7 µM (inactive) | – | 31.6 µM (inactive) | 47.3 µM (inactive) | 35.6 µM (inactive) | 41.5 µM (inactive)
7 | C/C=C/C(=O)N1C(=O)OC[C@@H]1c1ccccc1 | 17.6 µM (inactive) | 19.1 µM (inactive) | 20.5 µM (inactive) | – | 23.1 µM (inactive) | 19.2 µM (inactive) | 19.5 µM (inactive) | 16.7 µM (inactive) | 20.6 µM (inactive) | 19.4 µM (inactive) | 18.7 µM (inactive) | 21.9 µM (inactive) | 22.8 µM (inactive) | 21.8 µM (inactive) | 18.5 µM (inactive) | 20.4 µM (inactive) | 22 µM (inactive) | 14.7 µM (inactive) | 22.4 µM (inactive)
8 | C/C(=N/NC(=O)C(N)=O)C(CC(C(=O)Nc1ccccc1C)/C(C)=N\NC(=O)C(N)=O)C(=O)Nc1ccccc1C (stereo not given) | > 100 µM (inactive) | 83.2 µM (inactive) | > 100 µM (inactive) | > 100 µM (inactive) | > 100 µM (inactive) | > 100 µM (inactive) | 70.5 µM (inactive) | > 100 µM (inactive) | 47.1 µM (inactive) | > 100 µM (inactive) | > 100 µM (inactive) | > 100 µM (inactive) | > 100 µM (inactive) | > 100 µM (inactive) | > 100 µM (inactive) | > 100 µM (inactive) | – | – | –
9 | Cc1cc(C)c(C(=O)/C(=C/c2ccccc2)c2ccccc2)c(C)c1 | 72.8 µM (inactive) | 40.7 µM (inactive) | 41.7 µM (inactive) | 42.4 µM (inactive) | 39.9 µM (inactive) | 28.2 µM (inactive) | 56.8 µM (inactive) | 46.5 µM (inactive) | 32.8 µM (inactive) | 49.2 µM (inactive) | > 100 µM (inactive) | 57.5 µM (inactive) | 36.3 µM (inactive) | 91.6 µM (inactive) | 46.2 µM (inactive) | 18.2 µM (inactive) | – | – | –
10 | S=c1sc2c(S)nc(S)nc2n1-c1ccccc1 | > 100 µM (inactive) | > 100 µM (inactive) | > 100 µM (inactive) | > 100 µM (inactive) | > 100 µM (inactive) | > 100 µM (inactive) | > 100 µM (inactive) | > 100 µM (inactive) | 42.4 µM (inactive) | > 100 µM (inactive) | > 100 µM (inactive) | > 100 µM (inactive) | > 100 µM (inactive) | > 100 µM (inactive) | > 100 µM (inactive) | > 100 µM (inactive) | – | – | –
11 | N#Cc1sc2c(c1OC(=O)c1ccc(Cl)cc1Cl)c(=O)n(-c1ccccc1)c(=S)n2-c1ccccc1 | 31.8 µM (inactive) | 29 µM (inactive) | 21.8 µM (inactive) | 33.3 µM (inactive) | 15.4 µM (inactive) | 18.2 µM (inactive) | 0.13 µM (active) | 19.9 µM (inactive) | 20.2 µM (inactive) | 18.2 µM (inactive) | 16.6 µM (inactive) | 18.2 µM (inactive) | 17.1 µM (inactive) | 19.7 µM (inactive) | 19.8 µM (inactive) | – | 22.8 µM (inactive) | 23 µM (inactive) | 16.8 µM (inactive)
12 | CCOc1ccc(/N=C/c2c3ccccc3nc3ccccc23)cc1 | 95.3 µM (inactive) | 62.1 µM (inactive) | > 100 µM (inactive) | 48.9 µM (inactive) | > 100 µM (inactive) | 21.8 µM (inactive) | 98.6 µM (inactive) | 65.3 µM (inactive) | > 100 µM (inactive) | 55.2 µM (inactive) | 38.9 µM (inactive) | 65.6 µM (inactive) | 4.48 µM (inactive) | > 100 µM (inactive) | 46.2 µM (inactive) | 49.5 µM (inactive) | – | – | –
